Experimental data taken from patent US20220162191A1, “SMALL MOLECULE MODULATORS OF IL-17” (LEO PHARMA A/S, priority 2019, published 2022).
pEC50: −log10 of the molar value.

biological target: T1, human IL-17AA (Homo sapiens, UniProt Q16552); experiment: IL-8 release assay in human epithelial keratinocytes adult (HEKa); format: cell-based; settings: 3 ng/ml human IL-17AA + 10 ng/ml human TNFalpha, 68-72 h, IL-8 by HTRF, read-out: Rel EC50 L-8 release assay
T1 construct: host or cells: HEK (human embryonic kidney) cells
T1 sequence (Q16552 24-155) 1: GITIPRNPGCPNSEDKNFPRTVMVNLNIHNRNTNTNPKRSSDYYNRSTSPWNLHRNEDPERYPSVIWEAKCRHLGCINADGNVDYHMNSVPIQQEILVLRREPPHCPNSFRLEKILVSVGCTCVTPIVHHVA
T1 sequence (Q16552 24-155) 2: T1 sequence (Q16552 24-155) 1
Procedure, shortened: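 Adult human keratinocytes in Epilife with HKGS minus hydrocortisone, treated with compound then stimulated with final 3 ng/ml HEK-derived human IL-17AA plus 10 ng/ml TNF-alpha for 68–72 h at 37 °C; TNF-alpha alone defines 100% inhibition. Secreted IL-8 by HTRF; relative IC50 and Emax from four-parameter fits.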

| Compound | pEC50 |
| --- | --- |
| N-[1-[[2-chloro-5-(1-(l-6-oxo-3- pyridyl)phenyl]methyl]-2-[4-(3-chloro- 1H-pyrazol-4-yl)anilino]-2-oxo-ethyl]-2- methyl-pyrazole-3-carboxamide [Example 180] | 6.00 to 7.00 |
| Cc1n[nH]c(C)c1-c1ccc(NC(=O)[C@H](Cc2cc(-c3ccnc(N4C[C@@H]5C[C@H]4CN5)c3)ccc2Cl)NC(=O)C2(F)CC2)cc1 [Example 223, N-[(1S)-1-[[2-chloro-5-[2-[(1S,4S)-2,5-diazabicyclo[2.2.1]heptan-2-yl]-4-pyridyl]phenyl]methyl]-2-[4-(3,5-dimethyl-1H-pyrazol-4-yl)anilino]-2-oxo-ethyl]-1-fluoro-cyclopropanecarboxamide] | > 7.00 |
| Cc1n[nH]c(C)c1-c1ccc(NC(=O)[C@@H](NC(=O)C2(F)CC2)[C@@H]2CCc3ccc(-c4cccc(N5C[C@@H]6C[C@H]5CN6)c4)cc32)cc1 [Example 373, N-[(1S)-1-[(1R)-6-[3-[(1S,4S)-2,5-diazabicyclo[2.2.1]heptan-2-yl]phenyl]indan-1-yl]-2-[4-(3,5-dimethyl-1H-pyrazol-4-yl)anilino]-2-oxo-ethyl]-1-fluoro-cyclopropanecarboxamide] | > 7.00 |
| Cn1cncc1-c1ccc(NC(=O)[C@H](Cc2cc(-c3ccnc(C(O)C4CC4)c3)ccc2Cl)NC(=O)C2(F)CC2)cc1 (stereo partly drawn) [Example 124, N-[(1S)-1-[[2-chloro-5-[2-[cyclopropyl(hydroxy)methyl]-4-pyridyl]phenyl]methyl]-2-[4-(3-methylimidazol-4-yl)anilino]-2-oxo-ethyl]-1-fluoro-cyclopropanecarboxamide] | 6.00 to 7.00 |
| Cn1cncc1-c1ccc(NC(=O)C(Cc2cc(-c3ccnc(N4CC[C@@H](O)C4)c3)ccc2Cl)NC(=O)c2ccnn2C)cc1 (stereo partly drawn) [Example 192, N-[1-[[2-chloro-5-[2-[(3R)-3-hydroxypyrrolidin-1-yl]-4-pyridyl]phenyl]methyl]-2-[4-(3-methylimidazol-4-yl)anilino]-2-oxo-ethyl]-2-methyl-pyrazole-3-carboxamide] | 6.00 to 7.00 |
| Cc1n[nH]cc1-c1ccc(NC(=O)C(NC(=O)OC2CC2)C(c2ccccc2)c2cccc(-c3ccc(=O)n(C(C)C)c3)c2)cc1 (single isomer, unassigned; diastereomer 3) [Example 244, cyclopropyl N-[1-[[3-(1-isopropyl-6-oxo-3-pyridyl)phenyl]-phenyl-methyl]-2-[4-(3-methyl-1H-pyrazol-4-yl)anilino]-2-oxo-ethyl]carbamate (Diastereomer 3)] | < 6.00 |
| Cn1cnnc1-c1ccc(NC(=O)C(Cc2cc(-c3ccc(C#N)cc3)ccc2Cl)NC(=O)c2ccnn2C)cc1 (stereo not drawn) [Example 308, N-[1-[[2-chloro-5-(4-cyanophenyl)phenyl]methyl]-2-[4-(4-methyl-1,2,4-triazol-3-yl)anilino]-2-oxo-ethyl]-2-methyl-pyrazole-3-carboxamide] | < 6.00 |
| Cc1n[nH]c(C)c1-c1ccc(NC(=O)[C@@H](NC(=O)C2(F)CC2)[C@@H]2CCc3ccc(-c4ccnc(N5C[C@@H]6C[C@H]5CO6)c4)cc32)cc1 [Example 354, N-[(1S)-2-[4-(3,5-dimethyl-1H-pyrazol-4-yl)anilino]-1-[(1R)-6-[2-[(1S,4S)-2-oxa-5-azabicyclo[2.2.1]heptan-5-yl]-4-pyridyl]indan-1-yl]-2-oxo-ethyl]-1-fluoro-cyclopropanecarboxamide] | > 7.00 |
| Cc1cnn(C)c1-c1ccc(NC(=O)[C@@H](NC(=O)C2(F)CC2)[C@@H]2CCCc3ccc(-c4ccnc(N5C[C@@H]6C[C@H]5CO6)c4)cc32)cc1 [Example 398, N-[(1S)-2-[4-(2,4-dimethylpyrazol-3-yl)anilino]-1-[(1R)-7-[2-[(1S,4S)-2-oxa-5-azabicyclo[2.2.1]heptan-5-yl]-4-pyridyl]tetralin-1-yl]-2-oxo-ethyl]-1-fluoro-cyclopropanecarboxamide] | > 7.00 |
